# US10597387B2, “Methods to treat lymphoplasmacytic lymphoma” (Dana-Farber Cancer Institute, Inc., priority 2013, dated 2020)
# pIC50: −log10 of the molar value.
# How the values were obtained:
# BTK = BTK (Homo sapiens (Human), UniProt Q06187); assay: Invitrogen Select Screening kinase assay; type: biochemical; details: in vitro
# Text: The in vitro activity of the compounds described herein in inhibiting TAK1, HCK, and other kinases were obtained using an Invitrogen Select Screening assay as known in the art. The IC50 values determined from this assay are shown below.
# AMPKa1, AMPKa2 = assay: KiNativ kinase profiling; type: binding, Homo sapiens; details: Lys1, 1 μM, A375 cells
# ATR = ATR (Homo sapiens (Human), UniProt Q13535); assay: KiNativ kinase profiling; type: binding; details: ATP, A375 cells, read-out: inhibition of kinase labeling
# AurB = AurB (Homo sapiens (Human), UniProt Q96GD4); assay: KiNativ kinase profiling; type: binding; details: Lys1, A375 cells, read-out: inhibition of kinase labeling
# CaMK1d = CaMK1d (Homo sapiens (Human), UniProt Q8IU85); assay: KiNativ kinase profiling; type: binding; details: Lys1, A375 cells, read-out: inhibition of kinase labeling
# CDK5 = CDK5 (Homo sapiens (Human), UniProt Q00535); assay: KiNativ kinase profiling; type: binding; details: Lys2, A375 cells, read-out: inhibition of kinase labeling
# CK1g1 = CK1g1 (Homo sapiens (Human), UniProt Q9HCP0); assay: KiNativ kinase profiling; type: binding; details: Lys2, A375 cells, read-out: inhibition of kinase labeling
# eEF2K = eEF2K (Homo sapiens (Human), UniProt O00418); assay: KiNativ kinase profiling; type: binding; details: ATP, A375 cells, read-out: inhibition of kinase labeling
# Erk1 = Erk1 (Homo sapiens (Human), UniProt P27361); assay: KiNativ kinase profiling; type: binding; details: Lys2, A375 cells, read-out: inhibition of kinase labeling
# FGR = FGR (Homo sapiens (Human), UniProt P09769); assay: KiNativ kinase profiling; type: binding; details: Activation Loop, A375 cells, read-out: inhibition of kinase labeling
# FYN, SRC, YES = assay: KiNativ kinase profiling; type: binding, Homo sapiens; details: Activation Loop, 1 μM, A375 cells
# IKKe, TBK1 = assay: KiNativ kinase profiling; type: binding, Homo sapiens; details: Lys2, 1 μM, A375 cells
# ILK = ILK (Homo sapiens (Human), UniProt Q13418); assay: KiNativ kinase profiling; type: binding; details: Protein Kinase Domain, A375 cells, read-out: inhibition of kinase labeling
# JAK1 = JAK1 (Homo sapiens (Human), UniProt P23458); assay: KiNativ kinase profiling; type: binding; details: Protein Kinase Domain, A375 cells, read-out: inhibition of kinase labeling
# Chain of JAK1 (P23458 whole entry, the tested form may be a part): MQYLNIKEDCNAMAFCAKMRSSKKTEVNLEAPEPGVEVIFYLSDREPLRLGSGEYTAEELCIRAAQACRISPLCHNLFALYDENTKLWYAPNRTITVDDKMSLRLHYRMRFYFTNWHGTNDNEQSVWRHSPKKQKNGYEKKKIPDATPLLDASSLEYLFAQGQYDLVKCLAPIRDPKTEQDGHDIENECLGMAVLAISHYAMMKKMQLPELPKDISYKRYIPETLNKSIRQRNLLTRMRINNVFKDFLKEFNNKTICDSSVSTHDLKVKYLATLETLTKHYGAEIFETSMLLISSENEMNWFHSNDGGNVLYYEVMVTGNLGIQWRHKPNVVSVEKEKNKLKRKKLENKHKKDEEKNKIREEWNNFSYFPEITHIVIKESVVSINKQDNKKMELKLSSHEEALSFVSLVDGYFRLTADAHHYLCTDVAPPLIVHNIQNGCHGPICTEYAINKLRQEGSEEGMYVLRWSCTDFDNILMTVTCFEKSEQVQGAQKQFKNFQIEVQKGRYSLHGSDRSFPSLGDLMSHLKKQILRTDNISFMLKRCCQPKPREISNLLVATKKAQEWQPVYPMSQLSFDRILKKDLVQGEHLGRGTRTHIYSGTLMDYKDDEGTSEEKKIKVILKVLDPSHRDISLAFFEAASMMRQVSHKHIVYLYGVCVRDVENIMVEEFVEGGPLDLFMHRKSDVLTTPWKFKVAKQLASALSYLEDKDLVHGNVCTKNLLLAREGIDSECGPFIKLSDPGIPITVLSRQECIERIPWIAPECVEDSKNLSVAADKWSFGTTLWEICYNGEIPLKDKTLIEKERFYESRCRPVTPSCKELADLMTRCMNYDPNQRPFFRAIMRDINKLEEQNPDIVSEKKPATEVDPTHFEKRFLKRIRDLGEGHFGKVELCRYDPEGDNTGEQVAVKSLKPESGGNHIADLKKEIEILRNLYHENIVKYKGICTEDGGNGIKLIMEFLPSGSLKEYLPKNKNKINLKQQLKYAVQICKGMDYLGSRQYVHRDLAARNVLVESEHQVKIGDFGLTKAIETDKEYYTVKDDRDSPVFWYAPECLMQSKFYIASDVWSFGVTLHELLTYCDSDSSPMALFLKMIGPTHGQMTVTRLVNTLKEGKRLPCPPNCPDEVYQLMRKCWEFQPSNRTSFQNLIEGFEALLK
# LKB1 = LKB1 (Homo sapiens (Human), UniProt Q15831); assay: KiNativ kinase profiling; type: binding; details: Lys2, A375 cells, read-out: inhibition of kinase labeling
# MAP2K1, MAP2K2 = assay: KiNativ kinase profiling; type: binding, Homo sapiens; details: Lys2, 1 μM, A375 cells
# MAP2K3 = MAP2K3 (Homo sapiens (Human), UniProt P46734); assay: KiNativ kinase profiling; type: binding; details: Lys2, A375 cells, read-out: inhibition of kinase labeling
# MAP2K7 = MAP2K7 (Homo sapiens (Human), UniProt O14733); assay: KiNativ kinase profiling; type: binding; details: Lys2, A375 cells, read-out: inhibition of kinase labeling
# MAP3K2, MAP3K3 = assay: KiNativ kinase profiling; type: binding, Homo sapiens; details: Lys2, 1 μM, A375 cells
# MARK2, MARK3 = assay: KiNativ kinase profiling; type: binding, Homo sapiens; details: Lys2, 1 μM, A375 cells
# MASTL = MASTL (Homo sapiens (Human), UniProt Q96GX5); assay: KiNativ kinase profiling; type: binding; details: Lys1, A375 cells, read-out: inhibition of kinase labeling
# MST3 = MST3 (Homo sapiens (Human), UniProt Q9Y6E0); assay: KiNativ kinase profiling; type: binding; details: Lys2, A375 cells, read-out: inhibition of kinase labeling
# MST4, YSK1 = assay: KiNativ kinase profiling; type: binding, Homo sapiens; details: Lys2, 1 μM, A375 cells
# NDR1 = NDR1 (Homo sapiens (Human), UniProt Q15208); assay: KiNativ kinase profiling; type: binding; details: Lys1, A375 cells, read-out: inhibition of kinase labeling
# NEK3 = NEK3 (Homo sapiens (Human), UniProt P51956); assay: KiNativ kinase profiling; type: binding; details: Activation Loop, A375 cells, read-out: inhibition of kinase labeling
# NEK6, NEK7 = assay: KiNativ kinase profiling; type: binding, Homo sapiens; details: Lys2, 1 μM, A375 cells
# p38a = p38a (Homo sapiens (Human), UniProt Q16539); assay: KiNativ kinase profiling; type: binding; details: Protein Kinase Domain, A375 cells, read-out: inhibition of kinase labeling
# PFTAIRE1 = PFTAIRE1 (Homo sapiens (Human), UniProt O94921); assay: KiNativ kinase profiling; type: binding; details: Lys1, A375 cells, read-out: inhibition of kinase labeling
# PI4KB = PI4KB (Homo sapiens (Human), UniProt Q9UBF8); assay: KiNativ kinase profiling; type: binding; details: ATP, A375 cells, read-out: inhibition of kinase labeling
# PIK3CB = PIK3CB (Homo sapiens (Human), UniProt P42338); assay: KiNativ kinase profiling; type: binding; details: ATP, A375 cells, read-out: inhibition of kinase labeling
# Chain of PIK3CB (P42338 whole entry): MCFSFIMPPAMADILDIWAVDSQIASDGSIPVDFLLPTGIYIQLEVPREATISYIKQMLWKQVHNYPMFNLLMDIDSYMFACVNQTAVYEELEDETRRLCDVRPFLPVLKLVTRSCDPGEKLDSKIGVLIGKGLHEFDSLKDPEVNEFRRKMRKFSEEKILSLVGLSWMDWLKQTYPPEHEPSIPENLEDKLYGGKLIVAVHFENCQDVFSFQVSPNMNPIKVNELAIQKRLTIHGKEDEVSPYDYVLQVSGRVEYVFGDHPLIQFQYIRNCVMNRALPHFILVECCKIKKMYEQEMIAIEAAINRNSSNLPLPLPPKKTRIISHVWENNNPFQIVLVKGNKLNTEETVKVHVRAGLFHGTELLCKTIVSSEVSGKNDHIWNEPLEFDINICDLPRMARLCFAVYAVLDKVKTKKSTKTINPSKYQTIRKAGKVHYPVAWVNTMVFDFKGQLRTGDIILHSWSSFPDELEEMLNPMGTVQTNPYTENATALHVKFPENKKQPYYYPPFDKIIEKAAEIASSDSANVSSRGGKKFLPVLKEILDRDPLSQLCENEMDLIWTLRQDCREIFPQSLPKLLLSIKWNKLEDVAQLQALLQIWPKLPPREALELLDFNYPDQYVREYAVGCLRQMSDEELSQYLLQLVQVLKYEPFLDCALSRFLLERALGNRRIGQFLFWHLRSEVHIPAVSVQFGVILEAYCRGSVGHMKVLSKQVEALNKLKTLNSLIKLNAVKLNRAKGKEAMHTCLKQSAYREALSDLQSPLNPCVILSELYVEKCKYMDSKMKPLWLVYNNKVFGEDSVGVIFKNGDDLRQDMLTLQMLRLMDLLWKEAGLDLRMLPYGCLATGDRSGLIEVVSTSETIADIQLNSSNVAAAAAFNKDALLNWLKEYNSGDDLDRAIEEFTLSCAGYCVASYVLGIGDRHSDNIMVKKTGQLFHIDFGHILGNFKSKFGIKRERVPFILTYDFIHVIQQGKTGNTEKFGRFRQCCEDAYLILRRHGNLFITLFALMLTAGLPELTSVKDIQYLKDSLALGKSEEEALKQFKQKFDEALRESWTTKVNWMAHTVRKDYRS
# Chain of PIK3CB (P27986 whole entry partner): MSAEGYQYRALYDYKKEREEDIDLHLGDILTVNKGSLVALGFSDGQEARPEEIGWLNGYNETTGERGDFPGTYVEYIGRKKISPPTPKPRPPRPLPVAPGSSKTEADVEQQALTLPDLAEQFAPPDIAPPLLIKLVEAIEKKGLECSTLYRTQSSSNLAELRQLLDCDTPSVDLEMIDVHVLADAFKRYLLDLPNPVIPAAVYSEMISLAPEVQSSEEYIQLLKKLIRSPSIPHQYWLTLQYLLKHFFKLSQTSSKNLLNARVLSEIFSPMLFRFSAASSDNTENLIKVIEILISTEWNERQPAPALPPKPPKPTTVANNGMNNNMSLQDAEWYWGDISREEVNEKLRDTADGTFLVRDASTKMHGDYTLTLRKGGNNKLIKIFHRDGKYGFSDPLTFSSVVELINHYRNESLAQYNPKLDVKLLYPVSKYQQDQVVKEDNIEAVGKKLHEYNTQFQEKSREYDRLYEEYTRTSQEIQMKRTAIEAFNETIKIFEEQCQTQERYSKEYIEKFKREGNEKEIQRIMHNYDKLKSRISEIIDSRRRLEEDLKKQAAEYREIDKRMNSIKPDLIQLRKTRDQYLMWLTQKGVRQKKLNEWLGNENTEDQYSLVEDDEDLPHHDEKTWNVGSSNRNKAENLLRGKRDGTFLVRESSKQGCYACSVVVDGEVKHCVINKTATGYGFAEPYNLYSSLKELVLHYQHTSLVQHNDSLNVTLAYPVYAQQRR
# PIP4K2A = PIP4K2A (Homo sapiens (Human), UniProt P48426); assay: KiNativ kinase profiling; type: binding; details: ATP, A375 cells, read-out: inhibition of kinase labeling
# Chain of PIP4K2A (P48426 whole entry): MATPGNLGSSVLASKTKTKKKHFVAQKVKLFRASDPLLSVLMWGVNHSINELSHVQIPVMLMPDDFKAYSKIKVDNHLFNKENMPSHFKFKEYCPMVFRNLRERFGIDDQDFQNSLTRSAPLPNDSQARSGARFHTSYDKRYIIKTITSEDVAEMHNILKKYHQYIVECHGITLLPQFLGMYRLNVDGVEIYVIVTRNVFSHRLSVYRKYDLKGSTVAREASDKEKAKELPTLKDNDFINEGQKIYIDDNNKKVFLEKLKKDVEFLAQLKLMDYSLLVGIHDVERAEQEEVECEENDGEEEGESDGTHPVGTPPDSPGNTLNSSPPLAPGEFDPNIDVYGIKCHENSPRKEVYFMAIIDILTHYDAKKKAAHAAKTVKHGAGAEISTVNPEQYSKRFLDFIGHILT
# PKCi = PKCi (Homo sapiens (Human), UniProt P41743); assay: KiNativ kinase profiling; type: binding; details: Lys2, A375 cells, read-out: inhibition of kinase labeling
# RSK1 domain1 = RSK1 domain1 (Homo sapiens (Human), UniProt Q15418); assay: KiNativ kinase profiling; type: binding; details: Lys2, A375 cells, read-out: inhibition of kinase labeling
# RSK2 domain1 = RSK2 domain1 (Homo sapiens (Human), UniProt P51812); assay: KiNativ kinase profiling; type: binding; details: Lys2, A375 cells, read-out: inhibition of kinase labeling
# STLK6 = STLK6 (Homo sapiens (Human), UniProt Q9C0K7); assay: KiNativ kinase profiling; type: binding; details: Lys2, A375 cells, read-out: inhibition of kinase labeling
# Chain of STLK6 (Q9C0K7 whole entry): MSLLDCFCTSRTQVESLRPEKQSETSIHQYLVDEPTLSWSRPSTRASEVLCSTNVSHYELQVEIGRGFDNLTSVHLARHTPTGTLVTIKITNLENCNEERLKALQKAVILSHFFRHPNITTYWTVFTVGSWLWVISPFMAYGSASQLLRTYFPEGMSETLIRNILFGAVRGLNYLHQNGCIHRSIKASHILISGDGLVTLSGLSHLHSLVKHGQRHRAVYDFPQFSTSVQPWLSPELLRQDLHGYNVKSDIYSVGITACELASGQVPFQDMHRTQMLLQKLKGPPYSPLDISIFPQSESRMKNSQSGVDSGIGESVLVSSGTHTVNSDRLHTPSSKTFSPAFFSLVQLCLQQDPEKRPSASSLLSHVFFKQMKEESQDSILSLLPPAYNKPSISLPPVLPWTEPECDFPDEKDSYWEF
# TAO2 = TAO2 (Homo sapiens (Human), UniProt Q9UL54); assay: KiNativ kinase profiling; type: binding; details: Lys2, A375 cells, read-out: inhibition of kinase labeling
# TEC = TEC (Homo sapiens (Human), UniProt P42680); assay: KiNativ kinase profiling; type: binding; details: Activation Loop, A375 cells, read-out: inhibition of kinase labeling
# Chain of TEC (P42680 whole entry): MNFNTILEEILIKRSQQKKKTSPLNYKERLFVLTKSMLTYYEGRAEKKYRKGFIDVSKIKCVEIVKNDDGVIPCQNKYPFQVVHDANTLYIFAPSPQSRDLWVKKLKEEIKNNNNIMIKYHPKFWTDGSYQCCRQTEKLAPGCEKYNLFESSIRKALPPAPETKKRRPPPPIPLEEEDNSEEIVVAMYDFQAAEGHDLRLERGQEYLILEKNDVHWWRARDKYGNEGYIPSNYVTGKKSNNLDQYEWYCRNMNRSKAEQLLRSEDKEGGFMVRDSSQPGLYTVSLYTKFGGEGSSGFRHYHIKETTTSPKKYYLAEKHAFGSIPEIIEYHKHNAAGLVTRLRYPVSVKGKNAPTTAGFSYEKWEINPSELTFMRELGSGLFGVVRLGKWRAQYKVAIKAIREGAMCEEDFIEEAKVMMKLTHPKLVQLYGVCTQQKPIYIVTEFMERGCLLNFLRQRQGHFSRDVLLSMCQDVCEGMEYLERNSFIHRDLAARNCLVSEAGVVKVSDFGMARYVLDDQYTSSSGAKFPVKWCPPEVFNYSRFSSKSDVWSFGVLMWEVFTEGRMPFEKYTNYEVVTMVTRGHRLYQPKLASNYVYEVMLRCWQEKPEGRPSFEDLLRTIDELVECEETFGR
# ULK3 = ULK3 (Homo sapiens (Human), UniProt Q6PHR2); assay: KiNativ kinase profiling; type: binding; details: Lys1, A375 cells, read-out: inhibition of kinase labeling
# ZAP70 = ZAP70 (Homo sapiens (Human), UniProt P43403); assay: KiNativ kinase profiling; type: binding; details: Activation Loop, A375 cells, read-out: inhibition of kinase labeling
# [1] = system: ZC1/HGK, ZC2/TNIK, ZC3/MINK; assay: KiNativ kinase profiling; type: binding, Homo sapiens; details: Lys2, 1 μM, A375 cells
# Chain of BTK (Q06187 whole entry): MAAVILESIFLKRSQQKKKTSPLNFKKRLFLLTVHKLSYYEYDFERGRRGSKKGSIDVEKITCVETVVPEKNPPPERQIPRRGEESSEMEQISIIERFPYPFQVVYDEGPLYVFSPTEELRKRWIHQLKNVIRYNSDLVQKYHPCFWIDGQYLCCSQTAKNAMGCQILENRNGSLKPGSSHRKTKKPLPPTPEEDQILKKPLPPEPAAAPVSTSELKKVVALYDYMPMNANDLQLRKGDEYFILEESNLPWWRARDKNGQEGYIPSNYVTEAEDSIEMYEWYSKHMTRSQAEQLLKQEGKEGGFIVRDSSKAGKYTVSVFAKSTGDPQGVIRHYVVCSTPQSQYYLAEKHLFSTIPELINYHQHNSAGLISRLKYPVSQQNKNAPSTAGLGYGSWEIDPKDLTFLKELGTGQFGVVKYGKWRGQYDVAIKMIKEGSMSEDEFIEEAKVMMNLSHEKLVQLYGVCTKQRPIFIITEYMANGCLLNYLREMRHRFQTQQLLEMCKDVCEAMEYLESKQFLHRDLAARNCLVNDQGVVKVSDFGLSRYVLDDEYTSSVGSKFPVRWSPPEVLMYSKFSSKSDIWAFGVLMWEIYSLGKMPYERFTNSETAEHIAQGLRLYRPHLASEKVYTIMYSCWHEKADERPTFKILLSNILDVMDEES
smiles,measurement,setting,value
"Cc1ccc(C(=O)Nc2cccc(C(C)(C)C#N)c2)cc1NC(=O)c1cncc(-c2cccs2)c1 [I-6, N-(5-((3-(2-cyanopropan-2-yl)phenyl)carbamoyl)-2-methylphenyl)-5-(thiophen-2-yl)nicotinamide]",pIC50,BTK,5.94
same,inhibition of kinase labeling,"AMPKa1, AMPKa2",15.3%
same,inhibition at 1 µM,ATR,26.2%
same,inhibition at 1 µM,AurB,-94%
same,inhibition at 1 µM,CaMK1d,-17.8%
same,inhibition at 1 µM,CDK5,9.3%
same,inhibition at 1 µM,CK1g1,14.4%
same,inhibition at 1 µM,eEF2K,12%
same,inhibition at 1 µM,Erk1,-3%
same,inhibition at 1 µM,FGR,3.5%
same,inhibition of kinase labeling,"FYN, SRC, YES",55.7%
same,inhibition of kinase labeling,"IKKe, TBK1",24.8%
same,inhibition at 1 µM,ILK,17.2%
same,inhibition at 1 µM,JAK1,16.6%
same,inhibition at 1 µM,LKB1,4.9%
same,inhibition of kinase labeling,"MAP2K1, MAP2K2",4.1%
same,inhibition at 1 µM,MAP2K3,4.9%
same,inhibition at 1 µM,MAP2K7,-3%
same,inhibition of kinase labeling,"MAP3K2, MAP3K3",−15.3%
same,inhibition of kinase labeling,"MARK2, MARK3",17.2%
same,inhibition at 1 µM,MASTL,-3.7%
same,inhibition at 1 µM,MST3,-0.4%
same,inhibition of kinase labeling,"MST4, YSK1",22%
same,inhibition at 1 µM,NDR1,-10.5%
same,inhibition at 1 µM,NEK3,10%
same,inhibition of kinase labeling,"NEK6, NEK7",−3.7%
same,inhibition at 1 µM,p38a,85.1%
same,inhibition at 1 µM,PFTAIRE1,-31.3%
same,inhibition at 1 µM,PI4KB,-15.1%
same,inhibition at 1 µM,PIK3CB,2.8%
same,inhibition at 1 µM,PIP4K2A,12.8%
same,inhibition at 1 µM,PKCi,-17.5%
same,inhibition at 1 µM,RSK1 domain1,33.3%
same,inhibition at 1 µM,RSK2 domain1,5%
same,inhibition at 1 µM,STLK6,44.8%
same,inhibition at 1 µM,TAO2,33.4%
same,inhibition at 1 µM,TEC,-28.9%
same,inhibition at 1 µM,ULK3,-21.5%
same,inhibition at 1 µM,ZAP70,7.5%
same,inhibition of kinase labeling,[1],27%
